In patent publication US10874599B2, “Composition for inhibiting micro-organisms” (Clariant International Ltd., priority 2016, dated 2020) one finds MIC data, which are given here for 1 substance.

Holding throughout (experiment): MIC agar dilution test
Common to all, as to format: cell-based

Assay [1] concerns Aspergillus brasiliensis. The following applies: Experimental 1; Sabouraud-4% Dextrose-Agar, pH 5.6 (+/−0.2). Here is the method:
(§1) For testing the inhibition of bacteria, Composition 6 from Table 1 above was diluted in butylpolyglycol and added in different concentrations to liquid Caso-Agar at 50° C. and is buffered to pH 7 (+/−0.2). For testing the inhibition of yeast and mold, the Composition 6 was diluted in butylpolyglycol and added in different concentrations to liquid Sabouraud-4% Dextrose-Agar at 50° C. and is buffered to pH 5.6 (+/−0.2). Each of the solutions is poured into a petri-dish and inoculated with the same amount of bacteria, yeast or mold respectively. The minimum inhibitory concentration (MIC) is the lowest concentration of Composition 6 that inhibits the growth of the respective microorganism where the next lowest dilution fails to inhibit the growth of said microorganism.
(§2) A similar experiment was carried out versus Experimental 1. The composition employed in this second experiment is almost identical in composition to Composition 6 from Table 1 above, differing only slightly in the exact levels of the components. Composition 6a is according to the first aspect of the present invention. Here, a comparison is made versus the efficacy of phenoxyethanol, alone and in combination with composition 6a.

Assay [2] deals with Aspergillus terreus. The following applies: Experimental 1; Sabouraud-4% Dextrose-Agar, pH 5.6 (+/−0.2). Here is the method: as §1, §2
For assay [3], the system named is Candida albicans. The following applies: Experimental 1; Sabouraud-4% Dextrose-Agar, pH 5.6 (+/−0.2). Here is the method: as §1, §2
For assay [4], the system named is Candida parapsilosis. The following applies: Experimental 1; Sabouraud-4% Dextrose-Agar, pH 5.6 (+/−0.2). Here is the method: as §1, §2
Assay [5] concerns Citrobacter freundii. The following applies: Experimental 1; Caso-Agar, pH 7 (+/−0.2). Here is the method:
as §1, §2

The test system of assay [6] is Enterobacter aerogenes. The following applies: Experimental 1; Caso-Agar, pH 7 (+/−0.2). Here is the method:
as §1, §2

In assay [7] the test system is Enterobacter gergovia. The following applies: Experimental 1; Caso-Agar, pH 7 (+/−0.2). Here is the method: as §1, §2
Assay [8] has as its system Escherichia coli. The following applies: Experimental 1; Caso-Agar, pH 7 (+/−0.2). Here is the method:
as §1, §2

Assay [9] deals with Fusarium solani. The following applies: Experimental 1; Sabouraud-4% Dextrose-Agar, pH 5.6 (+/−0.2). Here is the method: as §1, §2
Assay [10] deals with Klebsiella pneumoniae. The following applies: Experimental 1; Caso-Agar, pH 7 (+/−0.2). Here is the method:
as §1, §2

The subject of assay [11] is Penicillium funicolosium. The following applies: Experimental 1; Sabouraud-4% Dextrose-Agar, pH 5.6 (+/−0.2). Here is the method:
as §1, §2

Assay [12] deals with Penicillium minioluteum. The following applies: Experimental 1; Sabouraud-4% Dextrose-Agar, pH 5.6 (+/−0.2). Here is the method: as §1, §2
Assay [13] relates to Pseudomonas aeruginosa. The following applies: Experimental 1; Caso-Agar, pH 7 (+/−0.2). Here is the method:
as §1, §2

For assay [14], the system named is Saccharomyces cerevisiae. The following applies: Experimental 1; Sabouraud-4% Dextrose-Agar, pH 5.6 (+/−0.2). Here is the method:
as §1, §2

In assay [15] the test system is Staphylococcus aureus. The following applies: Experimental 1; Caso-Agar, pH 7 (+/−0.2). Here is the method: as §1, §2
Assay [16] has as its system Brevibacterium linens. The following applies: Experimental 1; Caso-Agar, pH 7 (+/−0.2). Here is the method:
as §1

Assay [17] relates to Cornyebacterium jeikeium. The following applies: Experimental 1; Caso-Agar, pH 7 (+/−0.2). Here is the method:
as §1

Assay [18] has as its system Cornyebacterium xerosis. The following applies: Experimental 1; Caso-Agar, pH 7 (+/−0.2). Here is the method: as §1
Assay [19] relates to Malassezia furfur. The following applies: Experimental 1; Sabouraud-4% Dextrose-Agar, pH 5.6 (+/−0.2). Here is the method:
as §1

Assay [20] relates to Malassezia pachydermatis. The following applies: Experimental 1; Sabouraud-4% Dextrose-Agar, pH 5.6 (+/−0.2). Here is the method: as §1
Assay [21] relates to Malassezia sympiodalis. The following applies: Experimental 1; Sabouraud-4% Dextrose-Agar, pH 5.6 (+/−0.2). Here is the method: as §1
The subject of assay [22] is Staph. Epidermis. The following applies: Experimental 1; Caso-Agar, pH 7 (+/−0.2). Here is the method:
as §1

For assay [23], the system named is Streptococcus mutans. The following applies: Experimental 1; Caso-Agar, pH 7 (+/−0.2). Here is the method: as §1

For Sorbitan Caprylate, the MIC in [1] worked out at 800 ppm; in assay [2] it was 800 ppm; in assay [3] it was 800 ppm; in [4] it was 800 ppm; in assay [5], 10000 ppm; in assay [6], 10000 ppm. For the same substance, the MIC is listed as 10000 ppm in [7]; 10000 ppm in assay [8]; 800 ppm in assay [9]; 800 ppm in [10]; 400 ppm in [11]; 400 ppm in assay [12]. Moreover, the MIC is reported as 10000 ppm in [13]; 600 ppm in [14]; 800 ppm in [15]; 4000 ppm in assay [16]; 4000 ppm in [17]; 2000 ppm in [18]. Further, the MIC in assay [19] is 600 ppm; in assay [20], 400 ppm; in [21] it was 400 ppm; in [22], 10000 ppm; in assay [23], 2000 ppm.
